This passage reports IC50 results from US9359308B2, “Pyrazine kinase inhibitors” (Portola Pharmaceuticals, Inc., priority 2011, dated 2016).

The target of the test is T1, full length active recombinant SYK enzyme (Homo sapiens, UniProt P43405).
T1 construct: full length active recombinant SYK enzyme (Millipore, Calif.); purchased Millipore
Kind of test: Inhibition of Syk tyrosine phosphorylation activity (LANCE TR-FRET kinase assay). The class given is biochemical. The following applies: activity in the Syk assays, class symbols. In a few lines: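 1 nM full-length active recombinant SYK phosphorylated 550 nM biotin-DEEDYESP-OH with 100 μM ATP in 50 mM Tris pH 7.5, 5 mM MgCl2, 1 mM DTT and 3% DMSO for 1 h at room temperature. After EDTA quench, Eu-anti-phosphotyrosine/SA-APC TR-FRET was read after 1 h. IC50s came from non-linear regression.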
As usually defined, the IC50 is the midpoint of a concentration-inhibition curve. For the compound `CC[C@@H](Nc1cnc(C(N)=O)c(Nc2cnc(OC)c(C)c2)n1)C(N)=O` [Example 311, (R)-5-(1-amino-1-oxobutan-2-ylamino)-3-(6-methoxy-5-methylpyridin-3-ylamino)pyrazine-2-carboxamide], the IC50 lay within 10 to 100 nM.
Take `COc1ccc(Nc2nc(N[C@H](CC(C)C)C(N)=O)cnc2C(N)=O)cn1` [Example 312, (R)-5-(1-amino-4-methyl-1-oxopentan-2-ylamino)-3-(6-methoxypyridin-3-ylamino)pyrazine-2-carboxamide]: the IC50 lay in the range of 1 to 10 nM.
As to `CC(C)C[C@@H](Nc1cnc(C(N)=O)c(Nc2ccc(N(C)C)nc2)n1)C(N)=O` [Example 313, (R)-5-(1-amino-4-methyl-1-oxopentan-2-ylamino)-3-(6-(dimethylamino)pyridin-3-ylamino)pyrazine-2-carboxamide], the IC50 is 10 to 100 nM.
On to `CC[C@@H](Nc1cnc(C(N)=O)c(Nc2cnc(N(C)C)c(C)c2)n1)C(N)=O` [Example 314, (R)-5-(1-amino-1-oxobutan-2-ylamino)-3-(6-(dimethylamino)-5-methylpyridin-3-ylamino)pyrazine-2-carboxamide], for which the IC50 lay within 100 to 1000 nM.
Consider `COc1cc(Nc2nc(N[C@@H](C(N)=O)C(C)C)cnc2C(N)=O)ccn1` [Example 315, (R)-5-(1-amino-3-methyl-1-oxobutan-2-ylamino)-3-(2-methoxypyridin-4-ylamino)pyrazine-2-carboxamide], for which the IC50 was 10 to 100 nM.
The value for `CC[C@@H](Nc1cnc(C(N)=O)c(Nc2ccc(OCC(F)(F)F)nc2)n1)C(N)=O` [Example 316, (R)-5-(1-amino-1-oxobutan-2-ylamino)-3-(6-(2,2,2-trifluoroethoxy)pyridin-3-ylamino)pyrazine-2-carboxamide] was 10 to 100 nM; that for `CC[C@@H](Nc1cnc(C(N)=O)c(Nc2ccc(OC)nc2)n1)C(N)=O` [Example 317, (R)-5-(1-amino-1-oxobutan-2-ylamino)-3-(6-methoxypyridin-3-ylamino)pyrazine-2-carboxamide] was 10 to 100 nM.
For the compound `CC[C@@H](Nc1cnc(C(N)=O)c(Nc2ccc3nc(N(C)C)oc3c2)n1)C(N)=O` [Example 318, (R)-5-(1-amino-1-oxobutan-2-ylamino)-3-(2-(dimethylamino)benzo[d]oxazol-6-ylamino)pyrazine-2-carboxamide], the IC50 is 10 to 100 nM.
The value for `CC[C@@H](Nc1cnc(C(N)=O)c(Nc2ccc(N3CCC3)nc2)n1)C(N)=O` [Example 319, (R)-5-(1-amino-1-oxobutan-2-ylamino)-3-(6-(azetidin-1-yl)pyridin-3-ylamino)pyrazine-2-carboxamide] was 10 to 100 nM; that for `CC[C@@H](Nc1cnc(C(N)=O)c(Nc2cc(C)ccn2)n1)C(N)=O` [Example 320, (R)-5-(1-amino-1-oxobutan-2-ylamino)-3-(4-methylpyridin-2-ylamino)pyrazine-2-carboxamide] was more than 1000 nM.
The value for `CC(C)C[C@@H](Nc1cnc(C(N)=O)c(Nc2ccc(C(=O)N3CC(C#N)C3)nc2)n1)C(N)=O` [Example 321, (R)-5-(1-amino-4-methyl-1-oxopentan-2-ylamino)-3-(6-(3-cyanoazetidine-1-carbonyl)pyridin-3-ylamino)pyrazine-2-carboxamide] was 1 to 10 nM; that for `CC[C@@H](Nc1cnc(C(N)=O)c(Nc2cncc(OC)c2)n1)C(N)=O` [Example 322, (R)-5-(1-amino-1-oxobutan-2-ylamino)-3-(5-methoxypyridin-3-ylamino)pyrazine-2-carboxamide] was 100 to 1000 nM; that for `COc1cncc(Nc2nc(N[C@H](CC(C)C)C(N)=O)cnc2C(N)=O)c1` [Example 323, (R)-5-(1-amino-4-methyl-1-oxopentan-2-ylamino)-3-(5-methoxypyridin-3-ylamino)pyrazine-2-carboxamide] was 1 to 10 nM.
Consider `CN1C(=O)Cc2cc(Nc3nc(N[C@@H]4CCCC[C@@H]4N)cnc3C(N)=O)ccc21` [Example 324, 5-((1R,2S)-2-aminocyclohexylamino)-3-(1-methyl-2-oxoindolin-5-ylamino)pyrazine-2-carboxamide], for which the IC50 was 1 to 10 nM.
The value for `CN(C)c1nc2ccc(Nc3nc(N[C@@H]4CCCC[C@@H]4N)cnc3C(N)=O)cc2o1` [Example 325, 5-((1R,2S)-2-aminocyclohexylamino)-3-(2-(dimethylamino)benzo[d]oxazol-6-ylamino)pyrazine-2-carboxamide] was 1 to 10 nM; that for `COc1ccc(Nc2nc(N[C@@H](C(N)=O)C(C)C)cnc2C(N)=O)cn1` [Example 326, (R)-5-(1-amino-3-methyl-1-oxobutan-2-ylamino)-3-(6-methoxypyridin-3-ylamino)pyrazine-2-carboxamide] was 10 to 100 nM.
To `CC(C)[C@@H](Nc1cnc(C(N)=O)c(Nc2ccc(OCC(F)(F)F)nc2)n1)C(N)=O` [Example 327, (R)-5-(1-amino-3-methyl-1-oxobutan-2-ylamino)-3-(6-(2,2,2-trifluoroethoxy)pyridin-3-ylamino)pyrazine-2-carboxamide] belongs 100 to 1000 nM.
To `Cc1cc(Nc2nc(N[C@@H]3CCCC[C@@H]3N)cnc2C(N)=O)sn1` [Example 328, 5-((1R,2S)-2-aminocyclohexylamino)-3-(3-methylisothiazol-5-ylamino)pyrazine-2-carboxamide] belongs less than 1 nM; to `CC[C@@H](Nc1cnc(C(N)=O)c(Nc2ccc(C(=O)N3CC(C#N)C3)nc2)n1)C(N)=O` [Example 329, (R)-5-(1-amino-1-oxobutan-2-ylamino)-3-(6-(3-cyanoazetidine-1-carbonyl)pyridin-3-ylamino)pyrazine-2-carboxamide], 1 to 10 nM.
Consider `COc1ccc(Nc2nc(N[C@@H]3CCCC(F)(F)[C@@H]3N)cnc2C(N)=O)cn1` [Example 330, 5-((1R,2R)-2-amino-3,3-difluorocyclohexylamino)-3-(6-methoxypyridin-3-ylamino)pyrazine-2-carboxamide], for which the IC50 is 100 to 1000 nM.
Consider `COc1cc(Nc2nc(N[C@@H]3CCCC(F)(F)[C@@H]3N)cnc2C(N)=O)ccn1` [Example 331, 5-((1R,2R)-2-amino-3,3-difluorocyclohexylamino)-3-(2-methoxypyridin-4-ylamino)pyrazine-2-carboxamide], for which the IC50 was in the range of 10 to 100 nM.
Regarding `COc1ncc(Nc2nc(N[C@@H]3CCCC(F)(F)[C@@H]3N)cnc2C(N)=O)cc1C` [Example 332, 5-((1R,2R)-2-amino-3,3-difluorocyclohexylamino)-3-(6-methoxy-5-methylpyridin-3-ylamino)pyrazine-2-carboxamide], the IC50 lay in the range of 10 to 100 nM.
As to `COc1cncc(Nc2nc(N[C@@H]3CCCC(F)(F)[C@@H]3N)cnc2C(N)=O)c1` [Example 333, 5-((1R,2R)-2-amino-3,3-difluorocyclohexylamino)-3-(5-methoxypyridin-3-ylamino)pyrazine-2-carboxamide], the IC50 was in the range of 100 to 1000 nM.
As to `CC(C)C[C@@H](Nc1cnc(C(N)=O)c(Nc2ccc(N3CCC3)nc2)n1)C(N)=O` [Example 334, (R)-5-(1-amino-4-methyl-1-oxopentan-2-ylamino)-3-(6-(azetidin-1-yl)pyridin-3-ylamino)pyrazine-2-carboxamide], the IC50 is 10 to 100 nM.
As for `CC(C)C[C@@H](Nc1cnc(C(N)=O)c(Nc2ccnc(N(C)C)c2)n1)C(N)=O` [Example 335, (R)-5-(1-amino-4-methyl-1-oxopentan-2-ylamino)-3-(2-(dimethylamino)pyridin-4-ylamino)pyrazine-2-carboxamide], the IC50 was 1 to 10 nM.
For the compound `CN(C)c1nc2ccc(Nc3nc(N[C@@H]4CCCC(F)(F)[C@@H]4N)cnc3C(N)=O)cc2o1` [Example 336, 5-((1R,2R)-2-amino-3,3-difluorocyclohexylamino)-3-(2-(dimethylamino)benzo[d]oxazol-6-ylamino)pyrazine-2-carboxamide], the IC50 lay within 1 to 10 nM.
For the compound `NC(=O)c1ncc(N[C@@H]2CCCC(F)(F)[C@@H]2N)nc1Nc1ccc2nc(N3CCC3)oc2c1` [Example 337, 5-((1R,2R)-2-amino-3,3-difluorocyclohexylamino)-3-(2-(azetidin-1-yl)benzo[d]oxazol-6-ylamino)pyrazine-2-carboxamide], the IC50 was in the range of 10 to 100 nM.
To `N#Cc1ccc(Nc2nc(N[C@@H]3CCCC[C@@H]3N)cnc2C(N)=O)cn1` [Example 338, 5-((1R,2S)-2-aminocyclohexylamino)-3-(6-cyanopyridin-3-ylamino)pyrazine-2-carboxamide] belongs 10 to 100 nM; to `CN1Cc2cc(Nc3nc(N[C@@H]4CCCC[C@@H]4N)cnc3C(N)=O)ccc2C1=O` [Example 339, 5-((1R,2S)-2-aminocyclohexylamino)-3-(2-methyl-1-oxoisoindolin-5-ylamino)pyrazine-2-carboxamide], less than 1 nM.
As to `CCc1ccc(Nc2nc(N[C@H](CC)C(N)=O)cnc2C(N)=O)cn1` [Example 340, (R)-5-(1-amino-1-oxobutan-2-ylamino)-3-(6-ethylpyridin-3-ylamino)pyrazine-2-carboxamide], the IC50 fell in the range of 10 to 100 nM.
The value for `CC[C@@H](Nc1cnc(C(N)=O)c(Nc2ccc(C3CC3)nc2)n1)C(N)=O` [Example 341, (R)-5-(1-amino-1-oxobutan-2-ylamino)-3-(6-cyclopropylpyridin-3-ylamino)pyrazine-2-carboxamide] was 10 to 100 nM.
The value for `CC[C@@H](Nc1cnc(C(N)=O)c(Nc2ccnc(C3CC3)c2)n1)C(N)=O` [Example 342, (R)-5-(1-amino-1-oxobutan-2-ylamino)-3-(2-cyclopropylpyridin-4-ylamino)pyrazine-2-carboxamide] was less than 1 nM; that for `CCc1ccc(Nc2nc(N[C@@H]3CCCC(F)(F)[C@@H]3N)cnc2C(N)=O)cn1` [Example 343, 5-((1R,2R)-2-amino-3,3-difluorocyclohexylamino)-3-(6-ethylpyridin-3-ylamino)pyrazine-2-carboxamide] was 100 to 1000 nM.
